Where two headings read alike, the source gives them in different places.
Key:
[1] = TPM cytotoxicity of cigarette smoke
[2] = Gas vapor phase (GVP) toxicity
Source text: Additionally, a control filler was sprayed with 20 g of deionized H2O. Next, the sprayed fillers were dried, conditioned and processed into handmade cigarettes.

[3] = TPM mutagenicity of cigarette smoke
[4] = Table 1, filler additive 10.8% NH4OAc or 6.3% Co(NH3)6Cl3, vs water-sprayed control
[5] = Table 4, NH4OAc alone: filler treatment scaled up to 300 g/batch

Structure (SMILES): CC(=O)[O-].CC(=O)[O-].CC(=O)[O-].N.N.N.N.N.N.[Co+3] [Co(NH3)6(OAc)3, hexammine cobalt (III) acetate]
- Cytotoxicity, change (TPM) [1]: −24%
- TPM and GVP toxicity of cigarette smoke (in words) [1]: significant reduction
- GVP Toxicity, change ([2]; Table 5, Co 1.3%, NH3 2.4%, glycerin 10% where present, vs water-sprayed control): −42%

Structure (SMILES): N.N.N.N.N.N.[Cl-].[Cl-].[Cl-].[Co+3] [Co(NH3)6Cl3, hexammine cobalt (III) chloride]
- Cytotoxicity, change (MS TPM) [1]: −34%

Structure (SMILES): CC(=O)O.N [NH4OAc, ammonium acetate]
- Cytotoxicity, change (MS TPM) [1, 4]: −33%
- Cytotoxicity, change (TPM) [1, 5]: −26%
- Mutagenicity, change (MS TPM) [3, 4]: −11%
- Mutagenicity, change (TPM) [3, 5]: 9%
- reduction in GVP toxicity ([2]; Table 3): 29%
- GVP Toxicity, change ([2]; Table 3, change from control): −29%
